Reference: US9593149B2, “Amylin and calcitonin receptor agonist” (Novo Nordisk A/S, priority 2014, dated 2017)
Peptide text beside a SMILES is read from it. * marks the point of attachment. C18 diacid = O=C(O)CCCCCCCCCCCCCCCCC(=O)*

Assays:
[1] = Assay (XV) subcutaneous PK in LYD-pigs, co-formulated or co-dosed with liraglutide; type: in vivo; details: administered as co-formulations to LYD pigs
Procedure: The studies were performed in female LYD pigs of SPF origin delivered from Lars Jonson, Hillerødvej 70, Lynge.
Before the animals arrived, the animal rooms and pens were cleaned and disinfected with Virkon S. During the study, the animal rooms were cleaned and washed regularly.
The pigs were group housed during the acclimatisation period. The pigs were fitted with a central venous catheter while under anaesthesia and after the single housed after catheterization in pens ≧3.1 m^2 with straw as bedding. The temperature in the rooms was set at 20−23° C. and the relative humidity to 30-70%. The rooms were illuminated to give a cycle of 12 hours light and 12 hours darkness. Light was on from 07.00 to 19.00 h.
The formulations was prepared similarly and filled in cartridges in all cases.
The animals were dosed subcutaneously as follows.
The s.c. dosing was performed in 4 mm depth, in a site of injection which was secured on beforehand by ultrasound to avoid muscular tissue or heavy vascularization. Dosing was made using NovoPen®4 and needle Novofine 28 G and a needle stopper to ensure 4 mm depth of injection. The needle was kept in the subcutis for 10 seconds after the injection to secure deposition of compound. […] The co-formulation was administered as one injection. Study was performed as a cross over study with adequate wash out between dosings.
Blood was sampled at predefined time points for up till 15 days post dosing to adequately cover the full plasma concentration-time profile of the mimylin derivative. Blood samples were drawn from a central venous catheter to jugularis made through the catheter which was afterwards flushed with 10 ml 0.9% NaCl.
For each blood sampling time point approximately 0.8 mL of whole blood was collected in a 1.5 mL EDTA coated tube, and the tube was gently turned to allowing mixing of the sample with the anticoagulant. Blood samples (for example 0.8 mL) were collected in EDTA buffer (8 mM) and then centrifuged at 4° C. and 2000 G for 10 minutes. Plasma was pipetted into Micronic tubes on dry ice, and kept at −20° C. until analysis.
Individual plasma concentration-time profiles were analysed by a non-compartmental model in Phoenix WinNonlin version 6.3 (Pharsight Inc., Mountain View, Calif., USA).
The area under the plasma concentration versus time curve (AUC, [time×concentration]) was calculated (by the Pharsight programme) after subcutaneous administration, typically until 240-288 hours post dosing, or until last measured concentration. The AUC was calculated and given as AUCinf-pred and dose normalized.
Results of co-formulation studies in LYD-pigs are summarized below

[2] = biological target: T1, human amylin receptor (human calcitonin receptor + human RAMP3), BHK tk'ts 13 cells (Homo sapiens, UniProt O60896+P30988); test: Assay (Va) binding to the human amylin receptor (whole cell); details: read-out: hAmylin-R binding IC50
T1 construct: expressed in transfected cells; host or cells: BHK tk'ts 13
T1 sequence (O60896 24-148, one chain of several): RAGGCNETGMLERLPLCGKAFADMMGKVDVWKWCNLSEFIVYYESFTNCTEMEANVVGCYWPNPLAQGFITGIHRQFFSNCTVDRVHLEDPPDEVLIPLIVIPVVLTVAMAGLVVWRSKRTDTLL
Procedure: The day before the assay the cells were Seeded into Poly-D-Lysin coated 384W Opaque White, BD BioCoat plates (10000 cells/well) and Incubated overnight at 37° C., 5% CO2, 95% humidity.

[3] = biological target: T2, human calcitonin (a) receptor, BHK570 cells (Homo sapiens, UniProt P30988); test: Assay (II)b functional CRE-luciferase assay without albumin, human calcitonin receptor; type: cell-based; details: Tested without HSA; read-out: hCTR funct. EC50
T2 construct: host or cells: BHK570
T2 sequence (P30988 25-474): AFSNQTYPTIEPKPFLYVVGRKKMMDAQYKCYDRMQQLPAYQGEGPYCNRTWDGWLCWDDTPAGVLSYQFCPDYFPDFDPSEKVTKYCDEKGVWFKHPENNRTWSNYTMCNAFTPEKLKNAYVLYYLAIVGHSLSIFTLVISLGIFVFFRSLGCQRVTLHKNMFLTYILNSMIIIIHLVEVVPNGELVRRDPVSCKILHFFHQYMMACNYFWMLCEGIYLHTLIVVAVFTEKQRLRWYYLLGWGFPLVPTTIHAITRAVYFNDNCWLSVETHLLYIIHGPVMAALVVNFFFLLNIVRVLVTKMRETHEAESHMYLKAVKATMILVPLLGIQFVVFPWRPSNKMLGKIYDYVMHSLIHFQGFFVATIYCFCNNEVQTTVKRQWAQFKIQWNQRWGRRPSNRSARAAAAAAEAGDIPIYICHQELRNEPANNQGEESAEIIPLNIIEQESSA
From the text: (§1) Assay(II)b—Human Calcitonin and Amylin Receptor Assay without Albumin
(§2) 1. Luciferase Assay Outline
(§3) Activation of calcitonin and amylin (co-expression of calcitonin receptor and receptor activity modifying proteins (RAMP)) receptors lead to increased intracellular concentrations of cAMP. Consequently, transcription is activated by promoters containing multiple copies of the cAMP response element (CRE). It is thus possible to measure amylin activity by the use of a CRE luciferase reporter gene introduced into BHK cells also expressing calcitonin or amylin receptors.
(§4) 2. Construction of Calcitonin (a)—and Amylin 3(a)—Receptor/CRE-Luc Cell Line.
(§5) A BHK570 cell line was stably transfected with the human calcitonin receptor and a CRE-responsive luciferase reporter gene (Hollex-1 cell line, obtained from ZymoGenetics described in U.S. Pat. No. 5,622,839). The cell line was further transfected with RAMP-3, using standard methods. This turns the calcitonin receptor into an amylin 3(a) receptor. Methotrexate, Neomycin, and Hygromycin are selection markers for luciferase, the calcitonin receptor, and RAMP-3, respectively. To prepare the batches of frozen cells used in the luciferase assay described in the section below, the cells were cultured in growth medium (DMEM with 10% FBS, 1% Pen/Strep and 1 mM Napyruvate). […] Cells at approximately 80-90% confluence were washed with PBS and loosened from the plates with Versene. After centrifugation (2 min, 1300 rpm, in a Centrion Scientific centriuge C2 series with a BRK 5510 rotor head), the cell pellet was dissolved in 10% DMSO, 30% FBS and 60% growth medium and frozen (−80° C.) until utilization.
(§6) The day before the experiment, BHK calcitonin (a) receptor- or amylin 3(a)-receptor/CRE-luc cells were thawed, washed twice, and seeded in 40 μl growth medium on white 384 well culture plates (4.000 cells/well). On the assay day, the cells were washed 3 times in assay media (Dulbecco media W/o phenol red, 500 ml (Gibco, 11880-028); 0.1% ovalbumin; 10 mM Hepes pH 7.4; 1× Glutamin; 1% Pen/Strep). Then, 30 μl/well of sample diluted in assay buffer was added. After 3 hours of incubation at 37° C. and 5% CO2, the reaction was terminated by adding 30 μl/well SteadyLite Plus™. The plates were shaken at 300 rpm for 5 min at RT. Then, the plates were sealed and incubated at room temperature for 30 minutes. Finally, luminescence was tested on a TopCounter (Packard) in SPC (single photon counting) mode.
(§7) Additional Comment Regarding Use of Data Retrieved Via this Method
(§8) For the same reasons, measurements made in Assay IIa should not be compared in Assay IIb.

[4] = biological target: T3, human amylin 3(a) receptor (human calcitonin receptor + RAMP-3), BHK570 cells (Homo sapiens, UniProt O60896+P30988); test: Assay (II)b functional CRE-luciferase assay without albumin, human amylin receptor; type: cell-based; details: Tested without HSA; read-out: hAmylin-R funct. EC50
T3 construct: host or cells: BHK570
T3 sequence (O60896 24-148, one chain of several): as the sequence (O60896 24-148, one chain of several) above
From the text: as §1, §2, §3, §4, §5, §6, §7, §8

[5] = Assay (IV) determination of solubility; type: physicochemical
Procedure: Assay (IV)—Determination of Solubility
The mimylin peptide was dissolved in water at ˜500 nmol/ml and mixed 1:1 with a series of buffers (100 mM glycylglycine pH 3.0, 100 mM glycylglycine pH 4.0, 100 mM glycylglycine pH 5.0, 100 mM bistrispropane pH 6.0, 100 mM bistrispropane pH 6.5, 100 mM bistrispropane pH 7.0, 100 mM bistrispropane pH 7.5, 100 mM bistrispropane pH 8.0).

Structure (SMILES) | effect on PK profile of the co-formulated peptide [1] | IC50 [2] [nM] | EC50 [3] [nM] | EC50 [4] [nM] | solubility at 18 h ([5]; bistrispropane buffer, pH 6.5) [µM] | solubility at 18 h ([5]; bistrispropane buffer, pH 7.5) [µM] | solubility at 18 h ([5]; bistrispropane buffer, pH 6.0) [µM] | solubility at 18 h ([5]; bistrispropane buffer, pH 7.0) [µM] | solubility at 18 h ([5]; bistrispropane buffer, pH 8.0) [µM] | solubility at 18 h ([5]; glycylglycine buffer, pH 3.0) [µM] | solubility at 18 h ([5]; glycylglycine buffer, pH 4.0) [µM] | solubility at 18 h ([5]; glycylglycine buffer, pH 5.0) [µM]
CCCCCCCCCCCCCCCC(=O)N[C@@H](CCC(=O)NCCCC[C@H](NC(=O)[C@H](C)NC(=O)[C@H](C)NC(=O)[C@H](CCC(N)=O)NC(=O)CNC(=O)[C@H](CCC(=O)O)NC(=O)[C@H](CC(C)C)NC(=O)[C@H](Cc1ccc(O)cc1)NC(=O)[C@H](CO)NC(=O)[C@H](CO)NC(=O)[C@@H](NC(=O)[C@H](CC(=O)O)NC(=O)[C@H](CO)NC(=O)[C@@H](NC(=O)[C@H](Cc1ccccc1)NC(=O)[C@@H](NC(=O)CNC(=O)[C@H](CCC(=O)O)NC(=O)[C@H](C)NC(=O)[C@@H](N)Cc1cnc[nH]1)[C@@H](C)O)[C@@H](C)O)C(C)C)C(=O)N[C@@H](CCC(=O)O)C(=O)N[C@@H](Cc1ccccc1)C(=O)N[C@H](C(=O)N[C@@H](C)C(=O)N[C@@H](Cc1c[nH]c2ccccc12)C(=O)N[C@@H](CC(C)C)C(=O)N[C@H](C(=O)N[C@@H](CCCNC(=N)N)C(=O)NCC(=O)N[C@@H](CCCNC(=N)N)C(=O)NCC(=O)O)C(C)C)[C@@H](C)CC)C(=O)O [Liraglutide, N^ε26-[(4S)-4-carboxy-4-(hexadecanoylamino)butanoyl]-[Arg^34]-GLP-1-(7-37)-peptide, reference compound] | not affect the PK profile of Ex. compound 2 or 46 | – | – | – | – | – | – | – | – | – | – | –
CC[C@H](C)[C@H](NC(=O)[C@@H](NC(=O)[C@H](C)NC(=O)[C@@H](NC(=O)[C@H](CO)NC(=O)[C@H](CC(C)C)NC(=O)[C@H](CCC(=O)O)NC(=O)[C@H](CO)NC(=O)[C@H](C)NC(=O)[C@H](CCC(=O)O)NC(=O)CCCCCCCCCCCCCCCCC(=O)O)[C@@H](C)O)C(C)C)C(=O)NCC(=O)N[C@@H](CCCNC(=N)N)C(=O)N[C@@H](CC(C)C)C(=O)N[C@@H](CO)C(=O)N[C@@H](C)C(=O)N[C@@H](CCC(=O)O)C(=O)N[C@@H](CC(C)C)C(=O)N[C@@H](Cc1c[nH]cn1)C(=O)N[C@@H](CCC(=O)O)C(=O)N[C@@H](CC(C)C)C(=O)N[C@@H](C)C(=O)N[C@H](C(=O)N[C@@H](CC(C)C)C(=O)N1CCC[C@H]1C(=O)N[C@@H](CCCNC(=N)N)C(=O)N[C@H](C(=O)N[C@@H](CCC(=O)O)C(=O)N[C@H](C(=O)NCC(=O)N1CCC[C@H]1C(=O)N[C@@H](CCC(=O)O)C(=O)N[C@@H](CO)C(=O)N1CCC[C@H]1C(N)=O)[C@@H](C)O)[C@@H](C)O)[C@@H](C)O [compound 26, [N-terminal(C18 diacid), 9V, 10I]mimylin] ({C18 diacid}-EASELSTAVIGRLSAELHELATLPRTETGPESP-NH2) | – | 0.891 | 0.006 | 0.007 | ≥ 200 | ≥ 200 | ≥ 200 | ≥ 200 | ≥ 200 | ≥ 200 | ≥ 200 | ≥ 200
CC(C)C[C@H](NC(=O)[C@H](C)NC(=O)[C@H](C)NC(=O)[C@@H](NC(=O)[C@H](CO)NC(=O)[C@H](CC(C)C)NC(=O)[C@H](CCC(=O)O)NC(=O)[C@H](CO)NC(=O)[C@H](C)N)[C@@H](C)O)C(=O)NCC(=O)N[C@@H](Cc1c[nH]cn1)C(=O)N[C@@H](CC(C)C)C(=O)N[C@@H](CO)C(=O)N[C@@H](C)C(=O)N[C@@H](CCC(=O)O)C(=O)N[C@@H](CC(C)C)C(=O)N[C@@H](Cc1c[nH]cn1)C(=O)N[C@@H](CCC(=O)O)C(=O)N[C@@H](CC(C)C)C(=O)N[C@@H](C)C(=O)N[C@H](C(=O)N[C@@H](CC(C)C)C(=O)N1CCC[C@H]1C(=O)N[C@@H](CCCNC(=N)N)C(=O)N[C@H](C(=O)N[C@@H](CCC(=O)O)C(=O)N[C@H](C(=O)NCC(=O)N[C@@H](CO)C(=O)NCC(=O)N[C@@H](CO)C(=O)N1CCC[C@H]1C(N)=O)[C@@H](C)O)[C@@H](C)O)[C@@H](C)O [72bb, H—ASELSTAALGHLSAELHELATLPRTETGSGSP—NH2] (H-ASELSTAALGHLSAELHELATLPRTETGSGSP-NH2) | – | 5.1 | 0.003 | 0.014 | – | – | – | – | – | – | – | –
